In PubChem BioAssay (NCI):
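48-hour exposure; five concentrations; linearly interpolated endpoints. GI50 marks 50% less growth. At the TGI there is no net growth.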 Active and inactive are the calls of the source. Rule as the data show it: active = GI50 below about 0.43 µM; inactive = the rest.

How the values were obtained:
Assay in all cases: NCI anticancer screen, dose series, 48 h
[1] = tested on: TK-10 renal
[2] = tested on: CCRF-CEM leukemia
[3] = tested on: IGROV1 ovarian
[4] = tested on: MDA-MB-231 breast
[5] = tested on: NCI-H522 lung
[6] = tested on: SN12C renal
[7] = tested on: NCI-H460 lung
[8] = tested on: SK-MEL-28 melanoma
[9] = tested on: OVCAR-4 ovarian

| Structure (SMILES) | GI50 [1] [µM] | GI50 [2] [µM] | TGI [2] [µM] | GI50 [3] [µM] | TGI [4] [µM] | GI50 [5] [µM] | TGI [6] [µM] | TGI [7] [µM] | outcome [7] | GI50 [8] [µM] | TGI [8] [µM] | TGI [9] [µM] | outcome [9] | TGI [1] [µM] | TGI [3] [µM] | GI50 [4] [µM] | TGI [5] [µM] | GI50 [6] [µM] | GI50 [7] [µM] | GI50 [9] [µM] |
| --- | --- | --- | --- | --- | --- | --- | --- | --- | --- | --- | --- | --- | --- | --- | --- | --- | --- | --- | --- | --- |
| COc1ccc(C(=O)C#Cc2cnc(OC)nc2OC)cc1 | 17700 | 2530 | 10800 | 20300 | 86700 | 12700 | 2.63 | 10.8 | inactive | 89800 | 3.47 | 94.4 | inactive |  |  |  |  |  |  |  |
| CS(=O)(=O)CCNCc1ccc(-c2ccc3ncnc(Nc4ccc(OCc5ccccc5)cc4)c3c2)o1 | 0.285 | 0.631 | > 15.6 | 3.45 | 11.1 | 3.32 | > 25 | > 25 |  | 4.04 | 7.83 | > 25 |  | 9.7 | > 18.8 | 4.82 | 10.4 | 5.87 | 3.73 | 11.1 |
| O=S(=O)(NC1=NCCN1C(=S)SN1CCn2c1nsc2=S)c1cccc(Cl)c1 | 11.5 | 3.81 | > 100 | 12.4 | 50.7 | 5.58 | 40.6 | 72.9 |  | 21.4 | 39.7 | 54.6 |  | 28.5 | 36.8 | 15.3 | 18.4 | 14.9 | 22.5 | 22.2 |
| COC(=O)Nc1nc2ccc(Oc3ccc(NC(=O)Nc4cc(C(F)(F)F)ccc4F)cc3)cc2s1 | > 25 | > 23.7 | > 25 | > 25 | > 25 | > 25 | > 25 | > 25 |  | 13.9 | > 25 | > 20.2 |  | > 25 | > 25 | 9.05 | > 25 | > 17.3 | 10.2 | 7.24 |
| O=C1c2cccc([N+](=O)[O-])c2C(=O)N1c1ncn[nH]1 |  |  | > 100 |  | > 100 |  | > 100 | > 100 |  |  | > 100 | > 100 |  | > 100 | > 100 |  | > 100 |  |  |  |
| Cc1ccc(C(=O)NC(C)C)cc1-c1ccc(C(=O)NCC2CC2)cc1 | > 25 | > 25 | > 25 | > 25 | > 25 | > 25 | > 25 | > 25 |  | > 25 | > 25 | > 25 |  | > 25 | > 25 | > 25 | > 25 | > 25 | > 25 | > 25 |
| O=C(CC1C(=O)NN(c2ccc(Br)cc2)C1=O)c1cc(O)ccc1O (stereo not drawn) | 15.5 | > 50 | > 50 | 40 | 22.4 | 18.5 | 40.3 | > 50 |  | 28 | > 50 | > 50 |  | > 50 | > 50 | 8.44 | > 50 | 13.6 | 23 | 30.6 |
| COc1ccc(-c2nc(-c3nc4ccc(Cl)cc4[nH]3)c3ccccn23)cc1 | 2.01 | 27.3 | > 100 | 4.95 | 7.75 | 4.24 | 17.8 | 5.29 |  | 2.14 | 5.34 | 4.74 |  | 5.11 | 22.9 | 2.77 | 18.4 | 3.75 | 2.23 | 1.89 |
| O=C(Nc1ccncc1)C(=O)c1cn(S(=O)(=O)c2cccc(F)c2)c2ccccc12 | 15.7 | 2.58 | > 100 | 8.33 | > 100 | 1.3 | > 100 | > 100 |  | 4.74 | 60.5 | > 100 |  | > 100 | > 100 | 10.8 | 15.7 | 5.25 | 13 | 5.09 |
| COc1ccc2c(c1)CCCN2c1c2ccccc2nc2ccccc12 | 3.38 | 0.353 | 71.6 | 0.811 | > 100 | 0.384 | > 100 | > 100 |  | 0.878 | > 100 | > 100 |  | > 100 | 34.7 | 0.665 | 16.2 | 0.73 | 0.358 | 0.812 |
| Nc1nc2c(nnn2C2CC(O)C(CO)O2)c(=O)[nH]1 (stereo not drawn) | > 100 | 2.39 | > 100 | 9.49 | > 100 | 3.81 | > 100 | > 100 |  | 20.4 | > 100 | > 100 |  | > 100 | > 100 | 5.41 | > 100 | 5.44 | 7.4 | 11.5 |
| CC[C@@]1(c2ccccc2)C2=C(CC(C)(C)CC2=O)Nc2[nH]ncc21 | > 100 | 31.8 | > 100 | > 100 | > 100 | > 100 | > 100 | > 100 |  | > 100 | > 100 | > 100 |  | > 100 | > 100 | > 100 | > 100 | > 100 | > 100 | > 100 |
| CCOCC(=O)N[C@H]1CCc2cc(OC)c(OC)c(OC)c2-c2ccc(OC)c(=O)cc21 |  |  | > 100 |  | > 100 |  | > 100 | > 16.7 |  |  | > 100 | > 100 |  | > 100 | > 100 |  | 0.0768 |  |  |  |
| O=C(O)CCNC1CCCCC1 | > 100 | > 100 | > 100 | > 100 | > 100 | > 100 | > 100 | > 100 |  | > 100 | > 100 | > 100 |  | > 100 | > 100 | > 100 | > 100 | > 100 | > 100 | > 100 |
| CCCn1c(=S)sc2c1nc(C)n1c(Nc3ccccc3)nnc21 | 3.2 | 4.32 | > 100 | 25.8 | 33 | 3.57 | > 100 | 13.8 |  | 5.71 | 38.6 | > 100 |  | 84 | > 100 | 9.71 | 15.5 | 4.63 | 3.5 | 3.46 |
| COc1cc2ncn(-c3cc(OCc4cccs4)c(C(N)=O)s3)c2cc1OC | 9.21 | 0.806 | > 25 | 2.75 | > 21.2 | 0.924 | > 25 | > 10.5 |  | 7.62 | > 25 | > 25 |  | > 25 | > 25 | 2.21 | > 12.5 | 2.8 | 1.06 | 7.97 |
| O=C(O)C(=Cc1ccc(-c2ccccc2)cc1)C(=O)O |  |  | > 100 |  | 38.5 |  | 35.1 | 35.7 |  |  | 48.3 | 41.2 |  | 30.7 | > 100 |  | 22.8 |  |  |  |
| COc1cc[nH]c1/C=C1\C(=O)Nc2ccc(F)c(C#CC3(O)CCNCC3)c21 | 0.0291 | 0.0779 | 0.836 | 0.383 | 1 | 0.22 | 2.5 | 0.747 |  | 0.14 | 1.39 | 1.62 |  | 0.72 | 2.27 | 0.169 | 0.715 | 0.0626 | 0.0778 | 0.346 |
| CC/C=C\C[C@@H](O)C/C=C1/C(=O)C=C[C@H]1C/C=C\CCCC(=O)OC | 11.6 | 0.461 | 4.36 | 3.31 | 20.5 | 1.65 | 19.3 | 11.8 |  | 2.1 | 5.34 | 16.9 |  | 24 | 12.6 | 6.06 | 3.97 | 4.64 | 3.45 | 4.21 |
| Cc1cc2c(cc1Cl)SC1=NN(C)S(=O)N1S2(=O)=O (stereo not drawn) | > 100 | > 100 | > 100 | > 100 | > 100 | > 100 | > 100 | > 100 |  | > 100 | > 100 | > 100 |  | > 100 | > 100 | > 100 | > 100 | > 100 | > 100 | > 100 |
| Cc1ccc(-c2nc3nc(-c4ccccc4)nc(N4CCCNCC4)c3o2)cc1 | 1.73 | 1.89 | 4.23 | 1.74 | 3.32 | 1.73 | 3.06 | 3.53 |  | 1.84 | 3.28 | 3.09 |  | 3.14 | 3.39 | 1.81 | 3.39 | 1.56 | 1.86 | 1.59 |
| CCCCCCCC(=O)OCC/C=C/C1OC1C1OC(=O)/C=C\C=C\c2nc(oc2C)/C=C(/C)CCC2OC2C1OC(=O)NC(C)=O (stereo not drawn) | 0.0391 | 0.0651 | 3.98 | 0.0262 | 6.38 | 0.0192 | 0.554 | 0.495 |  | 0.0679 | 0.159 | 2.21 |  | 0.232 | 0.918 | 0.0625 | 0.0755 | 0.0491 | 0.0192 | 0.0766 |
| O=C(O)c1nn(-c2ccccc2-c2n[nH]c(=O)[nH]c2=O)c(=O)[nH]c1=O |  |  | > 100 |  | > 100 |  | > 100 | > 100 |  |  | > 100 | > 100 |  | > 100 | > 100 |  | > 100 |  |  |  |
